Test results taken from ChEMBL document CHEMBL5380844, “Discovery of a Novel, Potent, Orally Active, and Safe Inhibitor Targeting Human Mitochondrial RNA Polymerase” (J Med Chem, 2023).
Activity calls are given as the source filed them. No cut-off for these calls is given here.

Assays:
[1] = AUC (0 to t) in ICR mouse at 10 mg/kg, po measured upto 24 hrs by LC-MS/MS analysis; assay type: ADME, organism-based; parameters: dose 10 mg/kg, time < 24 hrs, route po; conditions: in vivo
HepG2 = experiment: Antiproliferative activity against human HepG2 cells incubated for 168 hrs by SRB method; assay type: functional, cell-based; conditions: HepG2, 168 h
A2780 [2] = experiment: Inhibition of mitochondrial transcript in human A2780 cells incubated for 12 hrs followed by compound removal and measured after 12 hrs by RT-qPCR analysis; assay type: functional, cell-based
A2780 [3] = experiment: Inhibition of mitochondrial transcript in human A2780 cells assessed as decrease in COX1 expression by RT-qPCR analysis; assay type: functional, cell-based
[4] = AUC (0 to t) in ICR mouse at 1 mg/kg, iv measured upto 24 hrs by LC-MS/MS analysis; assay type: ADME, organism-based; parameters: time < 24 hrs, dose 1 mg/kg, route iv; conditions: in vivo
A2780 [5] = experiment: Effect on beta-actin mRNA level in human A2780 cells by RT-qPCR analysis; assay type: functional, cell-based
IMR-90 = experiment: Antiproliferative activity against human IMR-90 cells incubated for 168 hrs by SRB method; assay type: functional, cell-based; conditions: IMR-90, 168 h

**Q.** Which results are given for `Cc1ccc(-c2cc(=O)oc3cc(O[C@H](C)C(=O)N4CC5CCC(C4)N5C)ccc23)c(C)c1`?
**A.** AUC(0-t) at 24 h [1]: 1830 ng·h/mL; IC50 (HepG2): 152 nM; inhibition (A2780 [2]): inactive; inhibition (A2780 [3]): Active; AUC(0-t) at 24 h [4]: 424 ng·h/mL; Activity (A2780 [5]): inactive; IC50 (IMR-90): > 50 µM
